Tests used:
[1] = target: T1, Dihydrofolate reductase (Homo sapiens) (UniProt P00374); assay: Percent inhibition of compound against recombinant human dihydrofolate reductase at a concentration of 100 uM
T1 sequence (whole entry): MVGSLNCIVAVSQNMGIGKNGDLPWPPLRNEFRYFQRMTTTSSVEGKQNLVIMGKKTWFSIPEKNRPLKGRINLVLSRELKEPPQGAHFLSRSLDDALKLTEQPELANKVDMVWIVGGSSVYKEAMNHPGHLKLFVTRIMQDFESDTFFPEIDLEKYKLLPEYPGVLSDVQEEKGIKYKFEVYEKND

[2] = (§1) Cytotoxicity of compound was determined against rat L-6 cells; assay type: functional, cell-based; details: L6
Leishmania donovani = assay: In vitro inhibition of compound against Leishmania donovani was determined; assay type: functional, organism-based
Trypanosoma cruzi = assay: In vitro inhibition of compound against Trypanosoma cruzi was determined; assay type: functional, organism-based
Trypanosoma brucei = assay: In vitro inhibition of compound against Trypanosoma brucei was determined; assay type: functional, organism-based
[3] = target: Bifunctional dihydrofolate reductase-thymidylate synthase (Leishmania major) (UniProt P07382); assay: Percent inhibition of compound against recombinant Leishmanial major dihydrofolate reductase at a concentration of 100 uM
Bifunctional dihydrofolate reductase-thymidylate synthase (Leishmania major), sequence (P07382 whole entry, looked up): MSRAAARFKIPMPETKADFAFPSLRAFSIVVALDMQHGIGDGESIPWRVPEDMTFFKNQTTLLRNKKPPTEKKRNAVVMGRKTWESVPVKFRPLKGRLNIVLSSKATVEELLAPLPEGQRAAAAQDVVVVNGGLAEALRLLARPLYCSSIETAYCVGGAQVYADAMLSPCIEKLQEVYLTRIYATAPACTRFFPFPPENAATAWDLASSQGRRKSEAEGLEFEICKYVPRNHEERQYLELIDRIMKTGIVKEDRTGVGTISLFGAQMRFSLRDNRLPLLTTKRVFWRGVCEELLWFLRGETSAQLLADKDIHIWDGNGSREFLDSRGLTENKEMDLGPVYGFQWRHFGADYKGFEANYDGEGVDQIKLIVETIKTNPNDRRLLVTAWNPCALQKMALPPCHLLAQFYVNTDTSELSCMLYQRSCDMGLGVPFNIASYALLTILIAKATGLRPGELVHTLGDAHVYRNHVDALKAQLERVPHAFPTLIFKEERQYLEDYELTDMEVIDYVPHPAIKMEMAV

[4] = target: T1, Dihydrofolate reductase (Homo sapiens); assay: Percent inhibition of compound against recombinant human dihydrofolate reductase at a concentration of 15 uM
[5] = as §1; assay type: functional
[6] = target: T1, Dihydrofolate reductase (Homo sapiens); assay: Percent inhibition of compound against recombinant human dihydrofolate reductase at a concentration of 50 uM

| inhibition [1] [%] | IC50 (Leishmania donovani) [µM] | IC50 (Trypanosoma cruzi) [µM] | IC50 (Trypanosoma brucei) [µM] | inhibition [3] [%] | inhibition [4] [%] | inhibition [6] [%] | SMILES | IC50 [2] [µM] | MIC [5] [µM] |
| --- | --- | --- | --- | --- | --- | --- | --- | --- | --- |
| 43 | 47 | 8.6 | 15 | 50 |  |  | CCOC(=O)/C(C#N)=C/c1ccc(/C=C/c2ccccn2)cc1 | > 296 |  |
| 10 | 54 | 60 | 35 | 28 |  |  | CCn1ncc2c1n/c(=N\c1ccccc1)n1ccc3ccccc3c21 | > 265 |  |
|  | 56 | 30 | 16 | 32 | 21 |  | COC(=O)/C(C#N)=C/c1ccc(/C=C/c2ccccn2)cc1 |  | > 310 |
|  | 69 | 35 | 11 | 50 |  | 37 | O=c1[nH]c(=O)n([C@H]2C[C@H](O)[C@@H](CO)O2)c2nc(-c3ccccc3)c(-c3ccccc3)nc12 | 208 |  |
| 16 | < 21 | 53 | 108 | 24 |  |  | COC(=O)N[C@H](C(=O)OC)[C@H](O)[C@@H](C)c1c(C)nc2n(C)c3ncn(Cc4ccccc4)c3c(=O)n12 | 181 |  |

Source: ChEMBL document CHEMBL1134037, “Novel inhibitors of Leishmanial dihydrofolate reductase” (Bioorg Med Chem Lett, 2001)
